In ChEMBL document CHEMBL5346892, “Design and synthesis of benzochromene derivatives as AcrB inhibitors for the reversal of bacterial multidrug resistance” (Eur J Med Chem, 2023):
Active and inactive are the calls of the source. The rule behind the calls is not given here.

How the values were obtained:
Escherichia coli [1] = experiment: Synergistic antibacterial activity against wild type Escherichia coli BW25113 assessed as erythromycin MIC at 1 microg/ml incubated for 18 hrs in presence of colistin by broth dilution assay; type: functional; conditions: dose 1 µg/ml
Escherichia coli [2] = experiment: Synergistic antibacterial activity against wild type Escherichia coli BW25113 assessed as fold decrease in erythromycin MIC at 8 to 128 microg/ml incubated for 18 hrs by checkboard based microplate reader analysis; type: functional; conditions: dose 8-128 µg/ml
[3] = Toxicity in Caenorhabditis elegans assessed as survival rate at 128 microg/ml measured after 72 hrs by light microscopic analysis; conditions: at 128 µg/mL
Escherichia coli [4] = experiment: Synergistic antibacterial activity against wild type Escherichia coli BW25113 assessed as levofloxacin MIC at 2 microg/ml incubated for 18 hrs in presence of colistin by broth dilution assay; type: functional; conditions: dose 2 µg/ml
Escherichia coli [5] = experiment: Synergistic antibacterial activity against wild type Escherichia coli BW25113 assessed as fold decrease in erythromycin MIC at 128 microg/ml incubated for 18 hrs by checkboard based microplate reader analysis; type: functional; conditions: dose 128 µg/ml
Escherichia coli [6] = experiment: Synergistic antibacterial activity against wild type Escherichia coli BW25113 assessed as minocycline MIC at 0.5 microg/ml incubated for 18 hrs in presence of colistin by broth dilution assay; type: functional; conditions: dose 0.5 µg/ml
Escherichia coli [7] = experiment: Synergistic antibacterial activity against wild type Escherichia coli BW25113 assessed as levofloxacin MIC at 0.5 microg/ml incubated for 18 hrs in presence of colistin by broth dilution assay; type: functional; conditions: dose 0.5 µg/ml
Escherichia coli [8] = experiment: Synergistic antibacterial activity against wild type Escherichia coli BW25113 assessed as levofloxacin MIC at 1 microg/ml incubated for 18 hrs in presence of colistin by broth dilution assay; type: functional; conditions: dose 1 µg/ml
Escherichia coli [9] = experiment: Synergistic antibacterial activity against wild type Escherichia coli BW25113 assessed as minocycline MIC at 64 microg/ml incubated for 18 hrs by broth dilution assay; type: functional; conditions: dose 64 µg/ml
[10] = target: T1, Multidrug efflux pump subunit AcrB (Escherichia coli (strain K12)) (UniProt P31224); experiment: Inhibition of Escherichia coli BW25113 AcrB assessed as inhibition of nile red efflux at 50 uM incubated for 15 mins
T1 sequence (whole entry): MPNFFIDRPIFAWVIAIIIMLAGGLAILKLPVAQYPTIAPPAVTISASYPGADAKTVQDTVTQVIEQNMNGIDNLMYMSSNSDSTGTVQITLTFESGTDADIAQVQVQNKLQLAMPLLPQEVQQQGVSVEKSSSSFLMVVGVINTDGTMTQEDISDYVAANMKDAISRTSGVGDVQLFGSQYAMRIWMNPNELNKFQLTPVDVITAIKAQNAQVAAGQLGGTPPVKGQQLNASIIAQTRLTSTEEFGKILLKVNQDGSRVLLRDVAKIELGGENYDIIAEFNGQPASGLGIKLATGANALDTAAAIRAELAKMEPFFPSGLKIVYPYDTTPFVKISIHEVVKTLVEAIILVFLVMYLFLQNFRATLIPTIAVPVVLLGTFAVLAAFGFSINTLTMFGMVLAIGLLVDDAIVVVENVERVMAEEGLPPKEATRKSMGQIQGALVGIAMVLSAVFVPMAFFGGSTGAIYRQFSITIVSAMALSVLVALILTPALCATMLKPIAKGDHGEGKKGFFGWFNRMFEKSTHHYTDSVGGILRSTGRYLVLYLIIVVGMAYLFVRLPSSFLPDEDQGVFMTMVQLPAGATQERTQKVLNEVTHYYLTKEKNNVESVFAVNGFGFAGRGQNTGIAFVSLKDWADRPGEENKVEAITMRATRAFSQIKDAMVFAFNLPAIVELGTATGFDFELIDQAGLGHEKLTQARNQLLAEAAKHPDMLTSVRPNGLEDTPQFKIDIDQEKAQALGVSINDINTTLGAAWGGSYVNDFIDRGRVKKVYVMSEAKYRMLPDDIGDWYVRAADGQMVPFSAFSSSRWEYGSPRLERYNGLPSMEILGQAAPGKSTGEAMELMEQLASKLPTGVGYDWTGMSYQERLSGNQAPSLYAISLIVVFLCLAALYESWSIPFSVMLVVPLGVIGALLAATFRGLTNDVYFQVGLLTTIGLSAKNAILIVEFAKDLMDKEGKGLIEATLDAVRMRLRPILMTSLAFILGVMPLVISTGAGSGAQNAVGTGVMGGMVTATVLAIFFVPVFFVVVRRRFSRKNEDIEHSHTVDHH

Escherichia coli [11] = experiment: Synergistic antibacterial activity against wild type Escherichia coli BW25113 assessed as erythromycin MIC at 0.5 microg/ml incubated for 18 hrs in presence of colistin by broth dilution assay; type: functional; conditions: dose 0.5 µg/ml
Escherichia coli [12] = experiment: Synergistic antibacterial activity against wild type Escherichia coli BW25113 assessed as erythromycin MIC at 128 microg/ml incubated for 18 hrs in presence of colistin by broth dilution assay; type: functional; conditions: dose 128 µg/ml
Escherichia coli [13] = experiment: Synergistic antibacterial activity against wild type Escherichia coli BW25113 assessed as fold decrease in minocycline MIC at 64 microg/ml incubated for 18 hrs by checkboard based microplate reader analysis; type: functional; conditions: dose 64 µg/ml
Escherichia coli [14] = experiment: Synergistic antibacterial activity against wild type Escherichia coli BW25113 assessed as levofloxacin MIC at 128 microg/ml incubated for 18 hrs in presence of colistin by broth dilution assay; type: functional; conditions: dose 128 µg/ml
Escherichia coli [15] = experiment: Synergistic antibacterial activity against wild type Escherichia coli BW25113 assessed as levofloxacin MIC at 4 microg/ml incubated for 18 hrs in presence of colistin by broth dilution assay; type: functional; conditions: dose 4 µg/ml
Escherichia coli [16] = experiment: Synergistic antibacterial activity against wild type Escherichia coli BW25113 assessed as fold decrease in erythromycin MIC at 16 to 64 microg/ml incubated for 18 hrs by checkboard based microplate reader analysis; type: functional; conditions: dose 16-64 µg/ml
Escherichia coli [17] = experiment: Synergistic antibacterial activity against wild type Escherichia coli BW25113 assessed as fold decrease in minocycline MIC at 128 microg/ml incubated for 18 hrs by checkboard based microplate reader analysis; type: functional; conditions: dose 128 µg/ml
Escherichia coli [18] = experiment: Synergistic antibacterial activity against wild type Escherichia coli BW25113 assessed as minocycline MIC at 4 microg/ml incubated for 18 hrs in presence of colistin by broth dilution assay; type: functional; conditions: dose 4 µg/ml
Escherichia coli [19] = experiment: Synergistic antibacterial activity against wild type Escherichia coli BW25113 assessed as fold decrease in erythromycin MIC at 64 microg/ml incubated for 18 hrs by checkboard based microplate reader analysis; type: functional; conditions: dose 64 µg/ml
Escherichia coli [20] = experiment: Synergistic antibacterial activity against wild type Escherichia coli BW25113 assessed as fold decrease in levofloxacin MIC at 64 microg/ml incubated for 18 hrs by checkboard based microplate reader analysis; type: functional; conditions: dose 64 µg/ml
[21] = target: T1, Multidrug efflux pump subunit AcrB (Escherichia coli (strain K12)); experiment: Inhibition of Escherichia coli BW25113 AcrB assessed as inhibition of nile red efflux at 100 uM incubated for 15 mins
[22] = target: T1, Multidrug efflux pump subunit AcrB (Escherichia coli (strain K12)); experiment: Inhibition of Escherichia coli BW25113 AcrB assessed as inhibition of nile red efflux at 200 uM incubated for 15 mins
Escherichia coli [23] = experiment: Synergistic antibacterial activity against wild type Escherichia coli BW25113 assessed as fold decrease in erythromycin MIC at 8 microg/ml incubated for 18 hrs by checkboard based microplate reader analysis; type: functional; conditions: dose 8 µg/ml
Escherichia coli [24] = experiment: Synergistic antibacterial activity against wild type Escherichia coli BW25113 assessed as erythromycin MIC at 4 microg/ml incubated for 18 hrs in presence of colistin by broth dilution assay; type: functional; conditions: dose 4 µg/ml

## CC1(C)CCc2c(C(=O)N3CCOCC3)cc3c(OCCN4CCN(c5ccccc5)CC4)cccc3c2O1
Escherichia coli [1]
  MIC: 16 µg/mL
Escherichia coli [2]
  fold change (FC): 16
[3]
  survival at 72 h, 128 microg/ml: 90%
Escherichia coli [4]
  MIC: 0.032 µg/mL
Escherichia coli [5]
  fold change (FC): 4
Escherichia coli [6]
  MIC: 1 µg/mL
Escherichia coli [7]
  MIC: 0.032 µg/mL
Escherichia coli [8]
  MIC: 0.032 µg/mL
Escherichia coli [9]
  MIC: 2 µg/mL
[10]
  inhibition: Active
Escherichia coli [11]
  MIC: 16 µg/mL

## COc1ccc(OCCCOc2cccc3c4c(c(C(=O)N5CCOCC5)cc23)CCC(C)(C)O4)cc1
Escherichia coli [12]
  MIC: 8 µg/mL
Escherichia coli [13]
  fold change (FC): 4
[3]
  survival at 72 h, 128 microg/ml: 90%
Escherichia coli [5]
  fold change (FC): 8
Escherichia coli [14]
  MIC: 0.032 µg/mL
Escherichia coli [9]
  MIC: 1 µg/mL
[10]
  inhibition: Active

## CC1(C)CCc2c(C(=O)N3CCOCC3)cc3c(OCCCOc4cccc(C(=O)O)c4)cccc3c2O1
Escherichia coli [15]
  MIC: 0.032 µg/mL
[3]
  survival at 72 h, 128 microg/ml: 90%
Escherichia coli [16]
  fold change (FC): 4
Escherichia coli [17]
  fold change (FC): 4
Escherichia coli [18]
  MIC: 0.5 µg/mL
Escherichia coli [19]
  fold change (FC): 4
Escherichia coli [9]
  MIC: 1 µg/mL
[10]
  inhibition: Active
Escherichia coli [20]
  fold change (FC): 4

## CC1(C)CCc2c(C(=O)N3CCOCC3)cc3c(OCCSc4ccc([N+](=O)[O-])cc4)cccc3c2O1
[21]
  inhibition: 100%
[22]
  inhibition: 100%
Escherichia coli [23]
  fold change (FC): 4
Escherichia coli [15]
  MIC: 0.032 µg/mL
[3]
  survival at 72 h, 128 microg/ml: 90%
Escherichia coli [18]
  MIC: 1 µg/mL
Escherichia coli [24]
  MIC: 8 µg/mL
Escherichia coli [9]
  MIC: 1 µg/mL
